The data set in a line: wn = mass fraction of the nth substance listed. The settings on record: 313 K, 101 kPa, Liquid, Vibrating tube method.

± gives the expanded uncertainty stated by the source.

Consider `CCCCn1cc[n+](C)c1.F[P-](F)(F)(F)(F)F` [1-butyl-3-methylimidazolium hexafluorophosphate] + O, for which the mass density (as a rule, the mass of a sample divided by its volume) runs as follows: (w2 = 6.7e-05) 1358.7 ± 3.6 kg/m3; (w2 = 0.0015) 1357.6 ± 3.6 kg/m3; (w2 = 0.0089) 1347.3 ± 3.6 kg/m3; (w2 = 0.016) 1335.5 ± 3.5 kg/m3.

(Values after the NIST ThermoML archive (doi:10.1021/je0502501).)
